Key:
Test in all cases: Test D pre-/postemergence plant response
Format in all cases: in vivo
[1] = tested on: black mustard (Brassica nigra)
Outline: (§1)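 Ratings come from greenhouse-grown weeds in loam and sand treated pre- or postemergence (postemergence height 2 to 18 cm). Evaluation after 14–21 days, visual, relative to controls, on a 0–100 control scale.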

[2] = tested on: signalgrass (broadleaf signalgrass, Brachiaria platyphylla)
Outline: as §1

[3] = tested on: nutsedge (purple nutsedge, Cyperus rotundus)
Outline: as §1

[4] = tested on: bluegrass (annual bluegrass, Poa annua)
Outline: as §1

[5] = tested on: quackgrass (Elytrigia repens)
Outline: as §1

[6] = tested on: groundsel (common groundsel, Senecio vulgaris); settings: Postemergence
Outline: as §1

[7] = tested on: field bindweed (Convolvulus arvensis)
Outline: as §1

[8] = tested on: sowthistle (common sowthistle, Sonchus oleraceous)
Outline: as §1

[9] = tested on: large crabgrass (Digitaria sanguinalis)
Outline: as §1

[10] = tested on: goosegrass (Eleusine indica)
Outline: as §1

[11] = tested on: mallow (common mallow, Malva sylvestris)
Outline: as §1

[12] = tested on: itchgrass (Rottboellia cochinchinensis)
Outline: as §1

[13] = tested on: Surinam grass (Brachiaria decumbens)
Outline: as §1

[14] = tested on: dayflower (Virginia (VA) dayflower, Commelina virginica)
Outline: as §1

[15] = tested on: green foxtail (Setaria viridis)
Outline: as §1

[16] = tested on: bermudagrass (Cynodon dactylon)
Outline: as §1

[17] = tested on: morningglory (pitted morningglory, Ipomoea lacunosa)
Outline: as §1

[18] = tested on: sandbur (southern sandbur, Cenchrus echinatus)
Outline: as §1

[19] = Postemergence, 31 g ai/ha, scale 0 to 100 (0 no effect, 100 complete control)
[20] = Postemergence, 62 g ai/ha, scale 0 to 100 (0 no effect, 100 complete control)
[21] = Postemergence, 125 g ai/ha, scale 0 to 100 (0 no effect, 100 complete control)
[22] = Postemergence, 16 g ai/ha, scale 0 to 100
[23] = Preemergence, 16 g ai/ha, scale 0 to 100, 0 no effect, 100 complete control
[24] = Preemergence, 31 g ai/ha, scale 0 to 100 (0 no effect, 100 complete control)
[25] = Preemergence, 62 g ai/ha, scale 0 to 100
[26] = Preemergence, 125 g ai/ha, scale 0 to 100
[27] = Postemergence, 31 g ai/ha, scale 0 to 100

Compound: COCCn1c(-c2cccc(C)c2)ncc(C(=O)C2=C(O)C3CCC(C3)C2=O)c1=O (stereo not shown) [Compound 233]
- Plant response rating, Black Mustard [1, 19]: 50
- Plant response rating, Black Mustard [1, 20]: 50
- Plant response rating, Black Mustard [1, 21]: 100
- Plant response rating, Black Mustard [1, 22]: 20
- Plant response rating, Black Mustard [1, 23]: 0
- Plant response rating, Black Mustard [1, 24]: 0
- Plant response rating, Black Mustard [1, 25]: 20
- Plant response rating, Black Mustard [1, 26]: 65
- Plant response rating, Signalgrass [2, 27]: 5
- Plant response rating, Signalgrass [2, 20]: 25
- Plant response rating, Signalgrass [2, 21]: 35
- Plant response rating, Signalgrass [2, 22]: 0
- Plant response rating, Signalgrass [2, 23]: 0
- Plant response rating, Signalgrass [2, 24]: 0
- Plant response rating, Signalgrass [2, 26]: 35
- Plant response rating, Nutsedge, Purple [3, 27]: 0
- Plant response rating, Nutsedge, Purple [3, 20]: 0
- Plant response rating, Nutsedge, Purple [3, 21]: 0
- Plant response rating, Nutsedge, Purple [3, 22]: 0
- Plant response rating, Nutsedge, Purple [3, 23]: 0
- Plant response rating, Nutsedge, Purple [3, 24]: 0
- Plant response rating, Nutsedge, Purple [3, 25]: 0
- Plant response rating, Nutsedge, Purple [3, 26]: 5
- Plant response rating, Bluegrass [4, 19]: 0
- Plant response rating, Bluegrass [4, 20]: 0
- Plant response rating, Bluegrass [4, 21]: 0
- Plant response rating, Bluegrass [4, 22]: 0
- Plant response rating, Bluegrass [4, 23]: 0
- Plant response rating, Bluegrass [4, 24]: 0
- Plant response rating, Bluegrass [4, 25]: 25
- Plant response rating, Bluegrass [4, 26]: 40
- Plant response rating, Quackgrass [5, 27]: 0
- Plant response rating, Quackgrass [5, 20]: 10
- Plant response rating, Quackgrass [5, 21]: 25
- Plant response rating, Quackgrass [5, 22]: 0
- Plant response rating, Quackgrass [5, 23]: 0
- Plant response rating, Quackgrass [5, 24]: 0
- Plant response rating, Quackgrass [5, 26]: 0
- Plant response rating, Groundsel ([6]; 31 g ai/ha, scale 0 to 100): 50
- Plant response rating, Groundsel ([6]; 62 g ai/ha, scale 0 to 100 (0 no effect, 100 complete control)): 90
- Plant response rating, Groundsel ([6]; 125 g ai/ha, scale 0 to 100 (0 no effect, 100 complete control)): 100
- Plant response rating, Groundsel ([6]; 16 g ai/ha, scale 0 to 100): 30
- Plant response rating, Field Bindweed [7, 27]: 50
- Plant response rating, Field Bindweed [7, 20]: 50
- Plant response rating, Field Bindweed [7, 21]: 70
- Plant response rating, Field Bindweed [7, 22]: 10
- Plant response rating, Field Bindweed [7, 23]: 0
- Plant response rating, Field Bindweed [7, 24]: 0
- Plant response rating, Field Bindweed [7, 25]: 85
- Plant response rating, Field Bindweed [7, 26]: 85
- Plant response rating, Sowthistle [8, 27]: 100
- Plant response rating, Sowthistle [8, 21]: 100
- Plant response rating, Sowthistle [8, 22]: 90
- Plant response rating, Sowthistle [8, 23]: 0
- Plant response rating, Sowthistle [8, 24]: 50
- Plant response rating, Sowthistle [8, 26]: 100
- Plant response rating, Crabgrass, Large [9, 27]: 40
- Plant response rating, Crabgrass, Large [9, 20]: 50
- Plant response rating, Crabgrass, Large [9, 21]: 60
- Plant response rating, Crabgrass, Large [9, 22]: 20
- Plant response rating, Crabgrass, Large [9, 23]: 0
- Plant response rating, Crabgrass, Large [9, 24]: 5
- Plant response rating, Crabgrass, Large [9, 25]: 25
- Plant response rating, Crabgrass, Large [9, 26]: 90
- Plant response rating, Goosegrass [10, 27]: 50
- Plant response rating, Goosegrass [10, 20]: 60
- Plant response rating, Goosegrass [10, 21]: 65
- Plant response rating, Goosegrass [10, 22]: 40
- Plant response rating, Goosegrass [10, 23]: 70
- Plant response rating, Goosegrass [10, 24]: 95
- Plant response rating, Goosegrass [10, 25]: 98
- Plant response rating, Goosegrass [10, 26]: 100
- Plant response rating, Mallow [11, 27]: 0
- Plant response rating, Mallow [11, 20]: 0
- Plant response rating, Mallow [11, 21]: 0
- Plant response rating, Mallow [11, 22]: 0
- Plant response rating, Mallow [11, 23]: 0
- Plant response rating, Mallow [11, 24]: 0
- Plant response rating, Mallow [11, 25]: 0
- Plant response rating, Mallow [11, 26]: 60
- Plant response rating, Itchgrass [12, 27]: 65
- Plant response rating, Itchgrass [12, 20]: 70
- Plant response rating, Itchgrass [12, 21]: 80
- Plant response rating, Itchgrass [12, 22]: 50
- Plant response rating, Itchgrass [12, 23]: 0
- Plant response rating, Itchgrass [12, 24]: 0
- Plant response rating, Itchgrass [12, 25]: 0
- Plant response rating, Itchgrass [12, 26]: 20
- Plant response rating, Surinam Grass [13, 20]: 50
- Plant response rating, Surinam Grass [13, 21]: 60
- Plant response rating, Surinam Grass [13, 22]: 30
- Plant response rating, Surinam Grass [13, 23]: 0
- Plant response rating, Surinam Grass [13, 24]: 5
- Plant response rating, Surinam Grass [13, 26]: 100
- Plant response rating, Dayflower, VA [14, 27]: 35
- Plant response rating, Dayflower, VA [14, 20]: 35
- Plant response rating, Dayflower, VA [14, 21]: 60
- Plant response rating, Dayflower, VA [14, 22]: 15
- Plant response rating, Dayflower, VA [14, 23]: 0
- Plant response rating, Dayflower, VA [14, 24]: 80
- Plant response rating, Dayflower, VA [14, 25]: 100
- Plant response rating, Dayflower, VA [14, 26]: 100
- Plant response rating, Foxtail, Green [15, 27]: 10
- Plant response rating, Foxtail, Green [15, 20]: 30
- Plant response rating, Foxtail, Green [15, 21]: 35
- Plant response rating, Foxtail, Green [15, 22]: 5
- Plant response rating, Foxtail, Green [15, 23]: 0
- Plant response rating, Foxtail, Green [15, 24]: 0
- Plant response rating, Foxtail, Green [15, 25]: 0
- Plant response rating, Foxtail, Green [15, 26]: 0
- Plant response rating, Bermudagrass [16, 19]: 70
- Plant response rating, Bermudagrass [16, 20]: 70
- Plant response rating, Bermudagrass [16, 21]: 70
- Plant response rating, Bermudagrass [16, 22]: 70
- Plant response rating, Bermudagrass [16, 23]: 5
- Plant response rating, Bermudagrass [16, 24]: 5
- Plant response rating, Bermudagrass [16, 25]: 85
- Plant response rating, Bermudagrass [16, 26]: 85
- Plant response rating, Morningglory [17, 27]: 60
- Plant response rating, Morningglory [17, 20]: 70
- Plant response rating, Morningglory [17, 21]: 70
- Plant response rating, Morningglory [17, 22]: 50
- Plant response rating, Morningglory [17, 23]: 0
- Plant response rating, Morningglory [17, 24]: 80
- Plant response rating, Morningglory [17, 25]: 95
- Plant response rating, Morningglory [17, 26]: 95
- Plant response rating, Sandbur [18, 27]: 65
- Plant response rating, Sandbur [18, 20]: 70
- Plant response rating, Sandbur [18, 21]: 75
- Plant response rating, Sandbur [18, 22]: 30
- Plant response rating, Sandbur [18, 23]: 0
- Plant response rating, Sandbur [18, 24]: 0
- Plant response rating, Sandbur [18, 26]: 85
